In US20060194837A1, “Tetrahydroisoquinoline compounds” (priority 2004, published 2006):

What was measured:
[1] = target: T1, human H3 receptor (Homo sapiens, UniProt Q9Y5N1); assay: H3 receptor binding (N-[3H]-α-methylhistamine displacement); conditions: membranes of SK-N-MC cells expressing cloned human H3 receptor, 0.8 nM N-[3H]-α-methylhistamine, 60 min at 25° C.
T1 construct: expressed in transfected cells
Description: Briefly, cell pellets from SK-N-MC cells expressing the human H3 receptor were homogenized in 50 mM Tris-HCl/5 mM EDTA and re-centrifuged at 30,000 g for 30 min. Pellets were re-homogenized in 50 mM Tris/6 mM EDTA (pH 7.4). Membranes were incubated with 0.8 nM N-[^3H]-α-methylhistamine plus/minus test compounds for 60 min at 25° C. and harvested by rapid filtration over GF/C glass fiber filters (pretreated with 0.3% polyethylenimine) followed by four washes with ice-cold buffer. Nonspecific binding was defined in the presence of 10 μM histamine.

[2] = target: T2, Rat SERT (Rattus norvegicus, UniProt P31652); assay: Rat brain SERT binding ([3H]-citalopram displacement); conditions: rat brain membranes without cerebellum, 0.6 nM [3H]-citalopram, 60 min at 25° C.; read-out: Rat SERT Ki
T2 construct: A rat brain without cerebellum (Zivic Laboratories, Inc.—Pittsburgh, Pa.) was homogenized; tissue Zivic Laboratories, Inc; host or cells: rat brain without cerebellum, membranes
T2 sequence (P31652 whole entry): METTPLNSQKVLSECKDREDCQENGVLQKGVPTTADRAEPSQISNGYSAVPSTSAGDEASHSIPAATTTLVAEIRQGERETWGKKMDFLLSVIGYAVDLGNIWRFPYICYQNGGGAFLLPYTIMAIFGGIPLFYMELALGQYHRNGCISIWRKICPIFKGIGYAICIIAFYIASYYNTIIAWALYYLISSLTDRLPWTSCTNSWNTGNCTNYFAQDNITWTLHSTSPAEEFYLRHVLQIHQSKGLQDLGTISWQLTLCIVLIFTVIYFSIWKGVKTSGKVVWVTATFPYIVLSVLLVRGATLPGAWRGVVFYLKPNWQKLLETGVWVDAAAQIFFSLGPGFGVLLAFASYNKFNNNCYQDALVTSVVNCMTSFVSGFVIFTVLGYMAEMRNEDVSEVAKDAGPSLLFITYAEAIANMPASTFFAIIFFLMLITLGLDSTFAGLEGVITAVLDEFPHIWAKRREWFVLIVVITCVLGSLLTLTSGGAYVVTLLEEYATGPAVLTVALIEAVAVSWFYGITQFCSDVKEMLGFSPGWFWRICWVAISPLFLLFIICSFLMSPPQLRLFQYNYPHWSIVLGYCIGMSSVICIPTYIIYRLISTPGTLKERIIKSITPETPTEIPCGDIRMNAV
Description: The supernatant was removed and re-centrifuged at 15,000 rpm for 30 min. […] Membranes were incubated with 0.6 nM [^3H]-Citalopram plus/minus test compounds for 60 min at 25° C. and harvested by rapid filtration over GF/C glass fiber filters (pretreated with 0.3% polyethylenimine) followed by four washes with ice-cold buffer.

T1 sequence (Q9Y5N1 whole entry): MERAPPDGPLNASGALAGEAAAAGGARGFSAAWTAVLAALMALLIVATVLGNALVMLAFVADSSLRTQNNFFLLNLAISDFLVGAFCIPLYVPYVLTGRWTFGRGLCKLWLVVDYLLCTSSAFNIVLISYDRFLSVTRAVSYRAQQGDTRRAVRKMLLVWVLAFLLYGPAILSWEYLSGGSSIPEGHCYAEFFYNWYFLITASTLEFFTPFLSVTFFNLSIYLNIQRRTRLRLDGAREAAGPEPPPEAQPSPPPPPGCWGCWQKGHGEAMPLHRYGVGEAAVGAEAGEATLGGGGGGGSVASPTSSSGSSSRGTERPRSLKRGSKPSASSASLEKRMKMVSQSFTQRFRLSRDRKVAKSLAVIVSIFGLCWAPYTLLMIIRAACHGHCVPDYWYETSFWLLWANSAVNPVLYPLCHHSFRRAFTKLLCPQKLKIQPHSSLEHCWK

Ki [1] [nM] | Ki [2] [nM] | SMILES
504 | 8 | COc1ccc(C2CN(C)Cc3cc(OCCCN4CCN(c5ccccc5O)CC4)ccc32)cc1 (centres unmarked) [Example 203, 2-(4-{3-[4-(4-Methoxy-phenyl)-2-methyl-1,2,3,4-tetrahydro-isoquinolin-7-yloxy]-propyl}-piperazin-1-yl)-phenol]
4 | 19 | CN1Cc2cc(OCCCN3CCC(F)CC3)ccc2C(c2ccccc2Cl)C1 (centres unmarked) [Example 132, 4-(2-Chloro-phenyl)-7-[3-(4-fluoro-piperidin-1-yl)-propoxy]-2-methyl-1,2,3,4-tetrahydro-isoquinoline]
46 | 1 | COCCNCCCOc1ccc2c(c1)CN(C)CC2c1ccc(OC)cc1 (centres unmarked) [Example 225, (2-Methoxy-ethyl)-{3-[4-(4-methoxy-phenyl)-2-methyl-1,2,3,4-tetrahydro-isoquinolin-7-yloxy]-propyl}-amine]
6 | 1 | COc1ccc(C2CN(C)Cc3cc(OCCCN4CCOC[C@@H]4CO)ccc32)cc1 (mixture of isomers) [Example 183A, (4-{3-[4-(4-Methoxy-phenyl)-2-methyl-1,2,3,4-tetrahydro-isoquinolin-7-yloxy)-propyl}-morpholin-3S-yl)-methanol]
18 | 6 | CSc1ccc(C2CN(C)Cc3cc(OCC4CCN(CCF)CC4)ccc32)cc1 (centres unmarked) [Example 178, 7-[1-(2-Fluoro-ethyl)-piperidin-4-ylmethoxy]-2-methyl-4-(4-methylsulfanyl-phenyl)-1,2,3,4-tetrahydro-isoquinoline]
6 | 25 | COc1ccc(C2CN(C)Cc3cc(OCC4CCN(C5CCC5)CC4)ccc32)cc1Cl (centres unmarked) [Example 106, 4-(3-Chloro-4-methoxy-phenyl)-7-(1-cyclobutyl-piperidin-4-ylmethoxy)-2-methyl-1,2,3,4-tetrahydro-isoquinoline]
32 | 8 | COc1ccc(C2CN(C)Cc3cc(OCC4CN(CCF)CCO4)ccc32)cc1 (mixture of isomers) [Example 258, 7-[4-(2-Fluoro-ethyl)-morpholin-2-ylmethoxy]-4-(4-methoxy-phenyl)-2-methyl-1,2,3,4-tetrahydro-isoquinoline]
8 | 4 | COc1ccc(C2CN(C)Cc3cc(OCC4CCN(C5CCC5)CC4)ccc32)cc1F (centres unmarked) [Example 111, 7-(1-Cyclobutyl-piperidin-4-ylmethoxy)-4-(3-fluoro-4-methoxy-phenyl)-2-methyl-1,2,3,4-tetrahydro-isoquinoline]
137 | 4 | COc1ccc(C2CN(C)Cc3cc(OCCCN4CCN(c5ccc(C#N)cc5)CC4)ccc32)cc1 (centres unmarked) [Example 208, 4-(4-{3-[4-(4-Methoxy-phenyl)-2-methyl-1,2,3,4-tetrahydro-isoquinolin-7-yloxy]-propyl}-piperazin-1-yl)-benzonitrile]
5 | 7 | COc1ccc(C2CN(C)Cc3cc(OCC4CCN(C5CCC5)CC4)ccc32)cc1 (centres unmarked) [Example 248, 7-(1-Cyclobutyl-piperidin-4-ylmethoxy)-4-(4-methoxy-phenyl)-2-methyl-1,2,3,4-tetrahydro-isoquinoline]
3 | 5 | COc1ccc(C2CN(C)Cc3cc(OCCCN4CCC(F)CC4)ccc32)cn1 (centres unmarked) [Example 193, 7-[3-(4-Fluoro-piperidin-1-yl)-propoxy]-4-(6-methoxy-pyridin-3-yl)-2-methyl-1,2,3,4-tetrahydro-isoquinoline]
5 | 3 | CSc1ccc(C2CN(C)Cc3cc(OCCCN4CCC(F)CC4)ccc32)cn1 (centres unmarked) [Example 187, 7-[3-(4-Fluoro-piperidin-1-yl)-propoxy]-2-methyl-4-(6-methylsulfanyl-pyridin-3-yl)-1,2,3,4-tetrahydro-isoquinoline]
38 | 1 | COc1ccc(C2CN(C)Cc3cc(OCCCNCC(C)C)ccc32)cc1 (centres unmarked) [Example 228, Isobutyl-{3-[4-(4-methoxy-phenyl)-2-methyl-1,2,3,4-tetrahydro-isoquinolin-7-yloxy]-propyl}-amine]
2 | 5 | COc1ccc(C2CN(C)Cc3cc(OCC4CCN(C(C)C)CC4)ccc32)cc1F (centres unmarked) [Example 89, 4-(3-Fluoro-4-methoxy-phenyl)-7-(1-isopropyl-piperidin-4-ylmethoxy)-2-methyl-1,2,3,4-tetrahydro-isoquinoline]
44 | 23 | COc1ccc(C2CN(C)Cc3c2ccc(OCCCN2CCOCC2)c3C)cc1 (centres unmarked) [Example 269, 4-(4-Methoxy-phenyl)-2,8-dimethyl-7-(3-morpholin-4-yl-propoxy)-1,2,3,4-tetrahydro-isoquinoline]
140 | 12 | COc1ccc(C2CN(C)Cc3cc(OCCCN4CCC[C@H]4C(F)(F)F)ccc32)cc1 (stereo partly drawn) [Example 28, 4-(4-Methoxy-phenyl)-2-methyl-7-[3-((2S)-trifluoromethyl-pyrrolidin-1-yl)-propoxy]-1,2,3,4-tetrahydro-isoquinoline]
1 | 10 | COc1ccc(C2CN(C)Cc3cc(OC4CCN(C(C)C)CC4)ccc32)cc1F (centres unmarked) [Example 120, 4-(3-Fluoro-4-methoxy-phenyl)-7-(1-isopropyl-piperidin-4-yloxy)-2-methyl-1,2,3,4-tetrahydro-isoquinoline]
14 | 6 | COc1ccc(C2CN(C)Cc3cc(OCCCN4CCC5(CC4)OCCO5)ccc32)cc1 (centres unmarked) [Example 41, 7-[3-(1,4-Dioxa-8-aza-spiro[4.5]dec-8-yl)-propoxy]-4-(4-methoxy-phenyl)-2-methyl-1,2,3,4-tetrahydro-isoquinoline]
17 | 1 | COc1ccc(C2CN(C)Cc3cc(OCCCNC(C)C)ccc32)cc1 (centres unmarked) [Example 230, Isopropyl-{3-[4-(4-methoxy-phenyl)-2-methyl-1,2,3,4-tetrahydro-isoquinolin-7-yloxy]-propyl}-amine]
4 | 15 | COc1cccc(C2CN(C)Cc3cc(OCC4CCN(C5CCCC5)CC4)ccc32)c1 (centres unmarked) [Example 94, 7-(1-Cyclopentyl-piperidin-4-ylmethoxy)-4-(3-methoxy-phenyl)-2-methyl-1,2,3,4-tetrahydro-isoquinoline]
64 | 17 | COc1ccc(C2CN(C)Cc3cc(OC[C@H]4CN(C5CC5)CCO4)ccc32)cc1 (single isomer, unassigned) [Example 261B, 7-(4-Cyclopropyl-morpholin-2R-ylmethoxy)-4-(4-methoxy-phenyl)-2-methyl-1,2,3,4-tetrahydro-isoquinoline]
18 | 2 | COc1ccc(C2CN(C)Cc3cc(OCCCNC4CC4)ccc32)cc1 (centres unmarked) [Example 229, Cyclopropyl-{3-[4-(4-methoxy-phenyl)-2-methyl-1,2,3,4-tetrahydro-isoquinolin-7-yloxy]-propyl}-amine]
2 | 13 | CCCN1CCC(Oc2ccc3c(c2)CN(C)CC3c2cccc(OC)c2)CC1 (centres unmarked) [Example 102, 4-(3-Methoxy-phenyl)-2-methyl-7-(1-propyl-piperidin-4-yloxy)-1,2,3,4-tetrahydro-isoquinoline]
4 | 9 | CCCN1CCC(COc2ccc3c(c2)CN(C)CC3c2ccc(OC)cc2F)CC1 (centres unmarked) [Example 114, 4-(2-Fluoro-4-methoxy-phenyl)-2-methyl-7-(1-propyl-piperidin-4-ylmethoxy)-1,2,3,4-tetrahydro-isoquinoline]
38 | 36 | CN1Cc2cc(OCCCN3CCOCC3)ccc2C(c2ccc(SC(F)(F)F)cc2)C1 (centres unmarked) [Example 218, 2-Methyl-7-(3-morpholin-4-yl-propoxy)-4-(4-trifluoromethylsulfanyl-phenyl)-1,2,3,4-tetrahydro-isoquinoline]
– | 9 | COc1ccc(C2CN(C)Cc3cc(OCC4CCN(C(C)C)CC4)ccc32)c(F)c1 (centres unmarked) [Example 90, 4-(2-Fluoro-4-methoxy-phenyl)-7-(1-isopropyl-piperidin-4-ylmethoxy)-2-methyl-1,2,3,4-tetrahydro-isoquinoline]

SMILES | Ki [1] [nM] | Ki [2] [nM]
COc1ccc(C2CN(C)Cc3cc(OCCCN4CCC(F)CC4)ccc32)c(F)c1 (single isomer, unassigned) [Example 141, 4-(2-Fluoro-4-methoxy-phenyl)-7-[3-(4-fluoro-piperidin-1-yl)-propoxy]-2-methyl-1,2,3,4-tetrahydro-isoquinoline] | – | 3
CN1Cc2cc(OCCCN3CCC(F)CC3)ccc2C(c2ccccc2F)C1 (centres unmarked) [Example 125, 4-(2-Fluoro-phenyl)-7-[3-(4-fluoro-piperidin-1-yl)-propoxy]-2-methyl-1,2,3,4-tetrahydro-isoquinoline] | 2 | 45
COc1ccc(C2CN(C)Cc3cc(OCCCN4CCC(F)CC4)ccc32)c(F)c1 (single isomer, unassigned) [Example 140, 4-(2-Fluoro-4-methoxy-phenyl)-7-[3-(4-fluoro-piperidin-1-yl)-propoxy]-2-methyl-1,2,3,4-tetrahydro-isoquinoline] | – | 28
COc1ccc(C2CN(C)Cc3cc(OCCCN4CCC(F)CC4)ccc32)c(F)c1 (racemic) [Example 139, 4-(2-Fluoro-4-methoxy-phenyl)-7-[3-(4-fluoro-piperidin-1-yl)-propoxy]-2-methyl-1,2,3,4-tetrahydro-isoquinoline] | – | 6
